What was measured:
mouse eIF4E = mouse eIF4E (Mus musculus, UniProt P63073); experiment: eIF4E competition binding assay with pyrene-labelled fluorescent probe; details: for EC50: mouse eIF4E 400 nM, pyrene-labelled probe 75 nM
human cN-IIIA = human cN-IIIA (Homo sapiens, UniProt Q9H0P0); experiment: IC50 determination for cN-IIIA (MGP assay); format: biochemical; details: for IC50: m7GMP 100 µM, cN-IIIA 40 nM, 25 min, MGP assay
Method: To determine the inhibitory potency towards cN-IIIA, compounds were evaluated using the MGP assay in an analogous way as described above for cN-IIIB.
All experiments were performed in triplicate.

[1] = tested on: endogenous cN-IIIB, m^7GMP dephosphorylation in cytoplasmic HEK 293T cell extracts; experiment: m7GMP decay in HEK 293T cell extract in presence of inhibitors (LC–MS/MS); format: biochemical, human; details: compound 100 µM, [2H]-m7GMP 4 µM, 37 °C, up to 60 min
Method: The expression of cN-IIIB was verified by Western blot and was the most abundant in HEK 293T among four tested cell lines (Figure 9A). The cN-IIIA isoform was likewise abundantly expressed in the HEK cell line. The stability and activity of the inhibitors were tested in HEK 293T cell extracts using mass spectrometry analysis. The evaluated set of compounds contained some of the identified cN-IIIB inhibitors: 4, 5, 5a, and 5d of varying inhibitory potencies as well as compound S16 with no inhibitory potency (negative control). Initially, we verified the stability of the compounds in the extracts. The LC–MS/MS analyses confirmed that all analyzed compounds were stable in the lysate for at least 60 min (Figure 9B). Then, we monitored the time-dependent degradation of heavy m^7GMP, deuterated within the methyl group ([^2H]-m^7GMP]) in the extracts, in the presence or absence of the evaluated compounds (100 µM each, Figure 9C).
A typical reaction contained 1 µL–40 µM (final concentrations 4 µM) of [^2H]m^7GMP and 9 µL cell extracts. […]
Chromatographic separation of nucleotides and their metabolites was achieved on a ZORBAX Eclipse Plus C18 analytical column (3.5 μm, 4.6 mm × 100 mm, Agilent) equipped with Eclipse Plus-C18 analytical guard column (5.0 μm, 4.6 × 12.5 mm). […] Then, the analytes in the HPLC eluate were monitored by MS in multiple reaction monitoring (MRM) mode. […]

Sequence of mouse eIF4E (P63073 whole entry): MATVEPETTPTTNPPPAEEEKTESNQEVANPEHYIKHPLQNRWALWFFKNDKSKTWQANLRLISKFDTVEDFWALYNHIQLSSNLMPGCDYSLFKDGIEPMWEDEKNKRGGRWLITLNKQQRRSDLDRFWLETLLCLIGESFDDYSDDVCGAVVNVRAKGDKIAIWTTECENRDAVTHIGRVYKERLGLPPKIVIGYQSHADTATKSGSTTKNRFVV

| SMILES | Affinity to eIF4E compared to m7GMP (mouse eIF4E; comparison of EC50 values) | EC50 (mouse eIF4E) [µM] | SI (cN-IIIB/eIF4E) (mouse eIF4E; ratio of IC50 for cN-IIIB and EC50 for eIF4E) | IC50 (human cN-IIIA) [µM] | SI (cN-IIIB/cN-IIIA) (human cN-IIIA; ratio of IC50 for cN-IIIB and IC50 for cN-IIIA) | Inhibition of m7GMP decay in HEK 293T cell extract (in words) [1] |
| --- | --- | --- | --- | --- | --- | --- |
| Nc1nc2c(c(=O)[nH]1)[n+](Cc1ccc(C(F)(F)F)cc1)cn2[C@@H]1O[C@H](COP(=O)([O-])O)[C@@H](O)[C@H]1O [Compound 5g, 7-(4-Trifluoromethylbenzyl)guanosine 5’-Monophosphate] | at least two-fold lower affinity | 118 ± 66.4 | 0.06 | 42.5 ± 8.3 | 0.17 |  |
| C[n+]1cn([C@@H]2O[C@H](Cn3cc(CCP(=O)([O-])O)nn3)[C@@H](O)[C@H]2O)c2nc(N)[nH]c(=O)c21 [Compound S16] |  |  |  |  |  | almost complete decay of m^7GMP was observed within the first 50 min |
| Nc1nc2c(c(=O)[nH]1)[n+](Cc1ccc(F)c(F)c1)cn2C1OC(COP(=O)([O-])O)C(O)C1O (centres unmarked) [Compound 5d] |  | 39.9 ± 8.5 |  | 106 ± 26.6 |  |  |
| Cc1cccc(C[n+]2cn([C@@H]3O[C@H](COP(=O)([O-])O)[C@@H](O)[C@H]3O)c3nc(N)[nH]c(=O)c32)c1 [Compound 5a] |  | 22.6 ± 4.3 |  | 127 ± 35.6 |  |  |
| Nc1nc2c(c(=O)[nH]1)[n+](Cc1ccccc1)cn2[C@@H]1O[C@H](COP(=O)([O-])O)[C@@H](O)[C@H]1O [Compound 5] |  |  |  | 113 ± 38.5 |  |  |

— article PMC9144445, “Substrate-Based Design of Cytosolic Nucleotidase IIIB Inhibitors and Structural Insights into Inhibition Mechanism” (Pharmaceuticals, 2022)
